The values that follow come from BindingDB's records for patent US11584735 (Kalvista Pharmaceuticals, 2023).

Usually IC50 stands for the concentration that inhibits the measured activity by half. The low end stands for greater potency in that assay, the high end for weaker potency in that assay.

SMILES strings stand for the structures.

This assay deals with Serine protease 1 (Homo sapiens, UniProt P07477). The assay can be described thus: Enzymatic Activity Assay.
Serine protease 1, sequence (P07477 whole entry): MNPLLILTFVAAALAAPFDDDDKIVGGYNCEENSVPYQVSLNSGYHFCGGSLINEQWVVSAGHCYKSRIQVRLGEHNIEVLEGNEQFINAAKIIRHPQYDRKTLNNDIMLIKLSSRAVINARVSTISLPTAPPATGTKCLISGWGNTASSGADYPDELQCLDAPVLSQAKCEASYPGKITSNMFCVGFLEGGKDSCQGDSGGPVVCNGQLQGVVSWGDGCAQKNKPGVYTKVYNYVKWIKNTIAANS

Experimental: Human serine protease enzymes plasmin, thrombin and trypsin were assayed for enzymatic activity using an appropriate fluorogenic substrate. Protease activity was measured by monitoring the accumulation of liberated fluorescence from the substrate over 5 minutes. The linear rate of fluorescence increase per minute was expressed as percentage (%) activity. The Km for the cleavage of each substrate was determined by standard transformation of the Michaelis-Menten equation.

For `COCc1nn(Cc2ccc(Cn3cc(F)ccc3=O)cc2)cc1C(=O)NCc1nccc(OC)c1F` [US11584735, Compound of Formula A], the IC50 is over 40 µM.
